Structures are written as SMILES. Some results are limits rather than exact numbers.

With `N#CC1CN1C(=O)NC(=O)c1ccc(-c2ccccc2)cc1` (stereo unspecified), the melting point is 168 to 172 °C.

`CCn1cc(-c2ccccc2)c(=O)c(-c2ccccc2)c1` showed a melting point of 171 °C.

In turn, `CCCCCCCCCCCCCCCCc1cc2c(s1)-n1c(C)nnc1CN=C2c1ccccc1Cl` had a melting point of 58 to 60 °C.

Consider `COc1ccc(C2(/C=C/c3cccc(C#N)c3)CCC(=O)CC2)cc1OC1CCCC1`, for which the melting point lay within 116 to 117 °C.

Turning to `CC(=O)CS(=O)(=O)N(C)C`, the melting point lay within 47 to 49 °C.

In the case of `Cc1cc(C)c(S(=O)(=O)NC(CNc2ccccc2)C(F)(F)F)c(C)c1` (stereo unspecified), the melting point was 82 to 86 °C.

For the compound `CC(C)Oc1cc(CCC(=O)NS(=O)(=O)c2ccc(C(F)(F)F)cc2)n(Cc2ccc(Cl)cc2Cl)n1`, the melting point lay in the range of 167 to 169 °C.

Compound `O=[N+]([O-])c1cc(Cl)c(OCC(F)(F)C(F)(F)F)c(Cl)c1F` registered a melting point of 62 to 63 °C.

`Nc1nc2cc(Cl)c(Cl)cc2n1Cc1ccccc1`: the melting point was 245 to 246 °C.

`Cc1ccc2c(C3CN4CCC3CC4)c(C)[nH]c2c1` (stereo unspecified) yielded a melting point of 237 to 238 °C.

`CCC(NC(Cc1cccnc1C)=NC#N)c1ccccc1` (stereo unspecified) displayed a melting point of 52 to 54 °C.

In turn, `CCN(CC)C(=O)Oc1nc(-c2ccccc2)cc2ccccc12` had a melting point of 81 °C.

With `Cc1cc(CCCCCOc2ccc(-c3ccco3)cc2)on1`, the melting point is 86 to 88 °C.

The compound `CC(C)(C)OC(=O)N(Cc1ccccc1)c1ccc(O)cc1` came in with a melting point of 228 to 230 °C.

Consider `CSc1ccc(CC2CCc3cc(OCCn4ccnc4)ccc3C2=O)cc1` (stereo unspecified), for which the melting point lay in the range of 114 to 117 °C.

Compound `CN(C(=O)CCl)C1(c2ccccc2)Cc2ccccc2C1` displayed a melting point of 134 to 137 °C.

In the case of `O=C1CCOc2ccc(Oc3ccccc3)cc21`, the melting point was 58 to 60 °C.

Compound `Cc1ccccc1C(=O)c1nc(Cl)ccc1[N+](=O)[O-]` gave a melting point of 111 to 112 °C.

`CC(Oc1ccc2oc3cc(Cl)ccc3c2c1)C(=O)O` (stereo unspecified) yielded a melting point of 170 to 172 °C.

Turning to `CCC(CC)c1nn(-c2ccc(C(F)(F)F)cn2)cc1CCCOc1c(CC(=O)O)cccc1OC`, the melting point is 100 to 101 °C.

`Nc1c(F)cc(F)c(-n2cc(C(=O)O)c(=O)c3cc(F)c(N4CC[C@H](N)C4)nc32)c1F` showed a melting point of 273 to 277 °C.

Consider `CCCn1nc(SCCCCCCC(=O)O)c(C(=O)O)c1Cc1cc2c(cc1Cl)OCO2`, for which the melting point is 180 °C.

In the case of `O=C(C=NNc1cc(Oc2ncccn2)c(Cl)cc1F)C(F)(F)F`, the melting point was in the range of 188 to 190 °C.

As to `Cc1cccc2nc(C)n(C3CCC(=O)NC3=O)c(=O)c12` (stereo unspecified), the melting point was 292 to 294 °C.

As to `CCCc1c(OCCCCCOc2ccccc2CCCC(=O)O)ccc2c1OCCC2=O`, the melting point fell in the range of 116 to 118 °C.

In the case of `COc1ccc(SC2(Sc3ccc(OC)cc3)CCC3C4CCC5=CC(=O)C=CC5(C)C4(F)C(O)CC32C)cc1` (stereo unspecified), the melting point is 209 to 211 °C.

`O=C1CCC(C(=O)O)c2cc(Cl)c(C3CCCCC3)cc21` (stereo unspecified) had a melting point of 204 to 205 °C.

Turning to `CC(C)Nc1nc2cc(F)c(F)cc2n1[C@H]1O[C@@H](CO)[C@H](O)[C@@H]1O`, the melting point lay in the range of 156 to 158 °C.

Compound `CCOC(=O)c1ccn(-c2ccc(OC(F)(F)F)cc2)n1` yielded a melting point of 76 to 78 °C.

On to `CCN1C(C(=O)Nc2coc3ccccc3c2=O)C(=O)c2ccccc2S1(=O)=O` (stereo unspecified), for which the melting point was in the range of 235 to 237 °C.

`Cc1c(Br)cc(C(C)(C)C)c(O)c1C1=Nc2cc(Cl)ccc2S(=O)(=O)N1` showed a melting point of 270 to 271 °C.

The compound `CC1(C)CN(CCN2CC(C)(C)N(O)C(C)(C)C2=O)C(=O)C(C)(C)N1O` came in with a melting point of 193 °C.

The compound `CN(C)CCC(c1ccncc1)S(=O)(=O)c1ccc(Cl)cc1` (stereo unspecified) yielded a melting point of 91 to 92 °C.

As for `N#Cc1ccc(CC(=O)Cc2ccc(C#N)cc2)cc1`, the melting point lay within 149 to 150 °C.

`CCN(CC)CCOc1c(-c2ccc(S(C)(=O)=O)cc2)cnn(-c2cccc(Cl)c2)c1=O` registered a melting point of 110 to 113 °C.

As for `CCOC(=O)C(=O)c1c[nH]c2c(CC)cccc12`, the melting point was 152 to 154 °C.

Compound `Cc1cc(C)c2c(c1)OS(=O)(=O)C(=Cc1ccc(N(C)C)cc1)C2=O` gave a melting point of 214 to 217 °C.

The compound `CC(=O)SCSc1ncn(C(c2ccccc2)(c2ccccc2)c2ccccc2)n1` displayed a melting point of 124 to 125 °C.

Compound `CCC=Cc1ncc(/C=C(\Cc2cccs2)C(=O)O)n1Cc1ccccc1Cl` registered a melting point of 224 to 226 °C.

In turn, `C=CCCNCc1nnc2n1-c1ccc(Cl)cc1C(c1ccccc1)=NC2` yielded a melting point of 157 to 160 °C.

`CN(C)S(=O)(=O)N1CCN(C(=O)c2ccc(Nc3ccnc4cc(C(F)(F)F)ccc34)cc2)CC1` gave a melting point of 223 to 224 °C.

Take `CCCc1ccc(-c2nnc(SC)nn2)cc1`: the melting point was 78 to 79 °C.

In turn, `C=CCO[C@H]1[C@@H](OCc2ccccc2)[C@@H](OCc2ccccc2)[C@H](OCc2ccccc2)[C@@H](OCc2ccccc2)[C@@]1(CCC)OC(=O)CCC` (racemic) showed a melting point of 115 °C.

Compound `COc1ccc(O)c(C2(CO)C(=O)N(CO)c3cccc(Br)c32)n1` (stereo unspecified) returned a melting point of 142 to 145 °C.

Compound `COC(=O)c1ccc(OC)c2c(I)c(OC)ccc12` came in with a melting point of 120 to 122 °C.

Turning to `COc1ccc(C(=O)c2sc3ccccc3c2-c2ccccc2)cc1`, the melting point is 94 to 95 °C.

Turning to `COP(=O)(CC(=O)[C@H](Cc1ccccc1)NC(=O)OC(C)(C)C)OC`, the melting point fell in the range of 76 to 78 °C.

Regarding `CCCCCN(CCC12CC3CC(CC(C3)C1)C2)C(=O)NCC(Cc1ccncc1)Cc1ccncc1`, the melting point was in the range of 124 to 136 °C.

With `O=[N+]([O-])c1ccccc1NCc1cc(F)cc(F)c1`, the melting point was 104 to 105 °C.

As for `O=c1[nH]c2cc(Cl)ccc2n1C1CCNCC1`, the melting point was in the range of 200 to 206 °C.

Take `CS(=O)(=O)c1nc(Cl)cc(Nc2ccc(C(F)(F)F)cc2)n1`: the melting point was 184 to 186 °C.

In turn, `CCOC(=O)CC(c1ccccc1)N(C(=O)CNC(=O)Nc1cccc(C)c1)c1ccccc1` (racemic) had a melting point of 146 °C.

In the case of `CC(C)(COc1ccc2nccn2n1)CS(N)(=O)=O`, the melting point is 165 to 167 °C.

`CCc1ccc(C(=O)NCc2ccc3c(c2)C(=O)N([C@@]2(C)CCC(=O)NC2=O)C3=O)cc1` registered a melting point of 160 to 162 °C.

For the compound `CCN(CC)CCOc1ccc(Nc2ncc3c(n2)N(C)C(=O)N(c2cc(Cl)ccc2Cl)C3)cc1`, the melting point was determined as 138 °C.

In the case of `CC(C)(C)OC(=O)NC1CCCCCC=CC2CC2(C(=O)NS(=O)(=O)C2CC2)NC(=O)C2CC(OC(=O)c3ccc(-c4ccccc4)cc3)CN2C1=O` (stereo unspecified), the melting point fell in the range of 162 to 164 °C.

In turn, `O=Cc1cccn1Cc1ccccc1[N+](=O)[O-]` registered a melting point of 128 to 132 °C.

Regarding `COC(=O)c1cc(OCc2ccccc2)c(OCc2ccccc2)c(OCc2ccccc2)c1`, the melting point lay in the range of 102 to 103 °C.

In turn, `NC(=O)/C=C1/c2cc(F)ccc2CC1Br` (stereo unspecified) registered a melting point of 162 to 163 °C.

Regarding `CC(C)OC(=O)N1CCC(NC(=O)N2CCn3c(c(C(N)=O)c(C#N)c3C3CCOCC3)C2)CC1`, the melting point lay in the range of 124 to 126 °C.

Take `CONS(=O)(=O)c1cc(Cl)c(Cl)cc1Cl`: the melting point fell in the range of 163 to 166 °C.

The compound `Nc1scc2c1C(=O)c1c(Cl)cccc1-2` returned a melting point of 183 to 185 °C.

Regarding `CCCc1cc(OCc2ccc(C(=O)O)cc2)c2ccccc2n1`, the melting point is 225 to 227 °C.

As to `CCOc1ccc2[nH]c(=O)n(-c3ccc(OC)cc3)c2c1`, the melting point is 98 °C.

`O=C(O)CNC(=O)c1ncc(-c2cccc(F)c2)cc1O`: the melting point was 182 to 184 °C.

As for `CN1CCN(c2nc(Oc3ccccc3)c3ccccc3n2)CC1`, the melting point fell in the range of 102 to 103 °C.

The compound `COc1cc(C(=O)NC(C)(C)C)ccc1S(=O)(=O)N1C(=O)C(N)(c2ccccc2Cl)c2cc(Cl)ccc21` (stereo unspecified) had a melting point of 263 to 265 °C.

Compound `CCOC(=O)C(C)(C)Oc1ccc(OCCc2nc(-c3ccc(C(N)=O)cc3)oc2C)cc1` displayed a melting point of 112 °C.

`CC(=O)c1ccc2c(c1)ncn2-c1cccc(-c2cnc(N)nc2)c1` displayed a melting point of 275 to 278 °C.

With `COC(=O)CCCc1cc2nc(Cl)ccc2n1S(=O)(=O)c1ccc(C)c2ccccc12`, the melting point lay within 118 to 120 °C.

As for `Oc1cccc(-c2nc(-c3cccnc3)no2)c1`, the melting point was above 200 °C.

`CCN(CC)S(=O)(=O)c1ccc2c(c1)C(C(Cl)(Cl)Cl)OC(C(Cl)(Cl)Cl)O2` (stereo unspecified) displayed a melting point of 125 to 126 °C.

The compound `O=C(Nc1ccc2cc(CN3CCCCC3)ccc2c1)c1ccc(-c2ccc(Cl)cc2)nc1` yielded a melting point of 228 to 229 °C.

Compound `N#Cc1cccc(CN2CCc3ccc(C(=O)CCCC4CCN(Cc5ccccc5Cl)CC4)cc3CC2)c1` gave a melting point of 121 to 122 °C.

In turn, `COc1ccc(C)cc1C(CCO)c1ccccc1` (stereo unspecified) had a melting point of 64 °C.

`CCc1nc2c(N)nc3ccccc3c2n1CC#Cc1ccc(OC)cc1` came in with a melting point of 179 to 181 °C.

In turn, `Cc1cc(Cl)cc(C(=O)NCC(C)O)c1NC(=O)c1cc(C(F)(F)F)nn1-c1ncccc1Cl` (stereo unspecified) displayed a melting point of 193 to 197 °C.

Take `CS(=O)(=O)C(Cl)=C(Cl)C#N`: the melting point was 100 °C.

Compound `COc1nc(C)nc(NC(=O)NS(=O)(=O)c2cccc3c2nnn3C)n1` gave a melting point of 134 to 136 °C.

As to `CCOC(=O)/C=C/c1nc(COc2ccc(C=O)cc2OC)c(C)o1`, the melting point lay within 117 to 118 °C.

In the case of `Cc1ccc(C(=O)Nc2ccc(N3CCOCC3)c(C(F)(F)F)c2)cc1Nc1nccc(-c2cccnc2)n1`, the melting point fell in the range of 216 to 218 °C.

Take `COc1cc2c(cc1OC)-c1c(O)c(OC)cc3c1C(C2)CN(C(=O)C(F)(F)F)C3` (stereo unspecified): the melting point was in the range of 210 to 217 °C.

Regarding `CCCc1cc(C(=O)OCC)ccc1O`, the melting point lay within 78 to 79 °C.

In turn, `CCCSc1ncc(CCC(=O)O)n1Cc1ccccc1Cl` displayed a melting point of 169 to 170 °C.

Compound `COC(=O)c1ccc(OC(=O)c2ccccc2C(=O)Oc2ccc(C(=O)OC)cc2)cc1` registered a melting point of 123 to 125 °C.

In turn, `CCOC(=O)Cc1c(-c2ccccc2)nn2cccnc12` registered a melting point of 86 to 89 °C.

Source of the values: a melting point compilation (Tetko et al.; mined from patent text by program, amines drawn as free bases though some values may be those of a salt).
